Data published in US8173694B2, “Therapeutic agent” (Pentraxin Therapeutics Limited, priority 2001, dated 2012).

Legend:
[1] = biological target: T1, radiolabelled human SAP (Homo sapiens, UniProt P02743); assay: Plasma clearance of radiolabelled human SAP tracer in mice; type: in vivo, mouse
T1 construct: intravenous injection of ^125I-labelled pure human or mouse SAP at time zero
Protocol: Clearance from the amyloid deposits, catabolism and excretion of the human SAP tracer were monitored globally by whole body counting of the mice (left), and the total amount of mouse SAP in the amyloidotic organs was determined after killing the animals on day 5 (right). […] Immediately after the 15 minute bleed, two groups, one that had received human SAP and the other mouse SAP, received a single intraperitoneal injection of 5 mg of (R)-1-[6-(R)-2-Carboxy-pyrrolidin-1-yl]-6-oxo-hexanoyl]pyrrolidine-2-carboxylic acid (desapin). Tracer remaining in the circulation is expressed as the mean (SD) percentage of the amount at the 15 minute time point for each group. […] In one of each of the pairs of groups receiving mouse or human SAP respectively, the tracer had been mixed with (R)-1-[6-(R)-2-Carboxy-pyrrolidin-1-yl]-6-oxo-hexanoyl]pyrrolidine-2-carboxylic acid (desapin) and incubated in vitro before injection into the animals. Tracer remaining in the circulation is expressed as mean (SD) total radioactivity per gram of blood in each group. Bottom panel: effect of administration of (R)-1-[6-(R)-2-Carboxy-pyrrolidin-1-yl]-6-oxo-hexanoyl]pyrrolidine-2-carboxylic acid (desapin) in the drinking water at the concentrations shown, on circulating human SAP values in human SAP transgenic mice. Mice of approximately 20 g body weight consume about 3 ml water per day. […]

[2] = biological target: isolated pure human SAP (Homo sapiens, UniProt P02743); assay: Size exclusion chromatography of isolated pure SAP mixed with drug; type: binding; conditions: for Elution volume / Molecular assembly: SAP
Sequence of isolated pure human SAP (P02743 20-223): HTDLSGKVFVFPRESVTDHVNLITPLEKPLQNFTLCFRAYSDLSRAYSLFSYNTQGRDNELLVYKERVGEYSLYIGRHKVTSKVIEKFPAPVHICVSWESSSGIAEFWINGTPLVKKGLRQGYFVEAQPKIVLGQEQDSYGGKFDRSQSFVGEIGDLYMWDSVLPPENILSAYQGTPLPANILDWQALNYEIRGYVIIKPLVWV
From the text: SAP is a pentamer with 5 identical non-covalently associated protomers each bearing a single calcium dependent ligand binding site on one planar face, the binding (B) face, of the molecule (9). In the absence of calcium, human SAP forms stable decameric dimers, probably via A-face to A-face interactions (11). In the presence of calcium, isolated human SAP rapidly aggregates and precipitates, as a result of molecular lattice formation due to binding of the exposed carboxylate of the Glu167 residue on one SAP molecule by the calcium dependent ligand binding site of another SAP molecule (12,13). This autoaggregation of SAP is inhibited by other ligands to which SAP binds, and all the present inhibitors of SAP binding to amyloid fibrils were active in this respect. However we show here that the greater potency of (R)-1-[6-(R)-2-Carboxy-pyrrolidin-1-yl]-6-oxo-hexanoyl]pyrrolidine-2-carboxylic acid and related compounds, as inhibitors of SAP binding to amyloid fibrils in vitro, results from their capacity to cross link pairs of SAP molecules. The palindromic structure of (R)-1-[6-(R)-2-Carboxy-pyrrolidin-1-yl]-6-oxo-hexanoyl]pyrrolidine-2-carboxylic acid enables it to not only block the ligand binding sites on individual SAP protomers, but could also cross link pairs of pentameric SAP molecules to form B-B face to face decameric dimers.
C-reactive protein (CRP) is a pentraxin closely related to SAP. Samples of isolated pure human SAP or CRP were mixed with (R)-1-[6-(R)-2-Carboxy-pyrrolidin-1-yl]-6-oxo-hexanoyl]pyrrolidine-2-carboxylic acid at the molar ratios shown, with respect to pentraxin protomer, in physiological ionic strength Tris buffered saline pH 8.0, and analysed by size exclusion chromatography precisely as described previously (14). The mixtures and the column eluants contained either no calcium ions or 2 mM calcium, and the concentrations of drug appropriate to maintain the molar ratios indicated above. In the absence of a specific ligand to which it can bind, purified human SAP is insoluble in the presence of calcium and elutes as high molecular weight aggregates in the void volume of the column (14). However in the absence of calcium and ligand, isolated SAP alone forms stable decamers, providing an excellent marker for the elution volume of this molecular assembly (14). Human CRP is a stable pentamer either in the presence or absence of calcium and thus provides a robust marker for the elution position of that molecular form (14).

[3] = drug:protein 1:1, calcium present
[4] = drug:protein 10:1, calcium present
[5] = drug:protein 128:1, calcium present

T1 sequence (P02743 20-223): as above

- Plasma clearance of radiolabelled human SAP tracer ([1]; single intraperitoneal injection of 5 mg): accelerated
- Clearance of radiolabelled human SAP preincubated with drug in vitro ([1]; tracer preincubated with drug before intravenous injection into normal mice): extremely rapidly cleared
- Molecular assembly of isolated SAP by gel filtration ([2]; 128 fold or greater molar excess of drug): single pentameric form
- Elution volume [2, 3]: 10.97 mL
- Molecular assembly [2, 3]: Decamer
- Elution volume [2, 4]: 10.97 mL
- Molecular assembly [2, 4]: Decamer
- Elution volume [2, 5]: 12.55 mL
- Molecular assembly [2, 5]: Pentamer
- Molecular assembly of isolated SAP by gel filtration ([2]; ratios between equimolar and 100 fold molar excess of drug to SAP protomers): all the SAP is decameric
SMILES: O=C(O)[C@H]1CCCN1C(=O)CCCCC(=O)N1CCC[C@@H]1C(=O)O [(R)-1-[6-(R)-2-Carboxy-pyrrolidin-1-yl]-6-oxo-hexanoyl]pyrrolidine-2-carboxylic acid]
